Results taken from PubChem BioAssay (NCI).
Values joined by “and” are separate entries in the source; they are usually repeats but may differ in a detail not shown here. Equal values may be shown once.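 96-well plates; 48 h exposure; 5 concentrations. Endpoints by linear interpolation between flanking doses. Not reached: highest tested concentration assigned. GI50 = concentration required for 50% inhibition of growth. The concentration for full growth arrest is given as TGI.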

Legend:
Experiment in all cases: growth of human tumour cells (NCI), 48 h
HOP-62 NSCLC = system: HOP-62 NSCLC
CAKI-1 renal = system: CAKI-1 renal
SF-295 CNS = system: SF-295 CNS
COLO 205 colon = system: COLO 205 colon
MALME-3M melanoma = system: MALME-3M melanoma
BT-549 breast = system: BT-549 breast
OVCAR-4 ovarian = system: OVCAR-4 ovarian
U251 CNS = system: U251 CNS
HCC-2998 colon = system: HCC-2998 colon
LOX IMVI melanoma = system: LOX IMVI melanoma

| SMILES | GI50 (HOP-62 NSCLC) | TGI (HOP-62 NSCLC) [µM] | GI50 (CAKI-1 renal) | GI50 (SF-295 CNS) | TGI (SF-295 CNS) | GI50 (COLO 205 colon) | TGI (COLO 205 colon) [µM] | GI50 (MALME-3M melanoma) [µM] | GI50 (BT-549 breast) [µM] | TGI (BT-549 breast) [µM] | GI50 (OVCAR-4 ovarian) | TGI (OVCAR-4 ovarian) [µM] | TGI (U251 CNS) [µM] | GI50 (HCC-2998 colon) | TGI (HCC-2998 colon) | TGI (CAKI-1 renal) [µM] | TGI (MALME-3M melanoma) [µM] | GI50 (LOX IMVI melanoma) [µM] | TGI (LOX IMVI melanoma) [µM] | GI50 (U251 CNS) [µM] |
| --- | --- | --- | --- | --- | --- | --- | --- | --- | --- | --- | --- | --- | --- | --- | --- | --- | --- | --- | --- | --- |
| C=C/C=C/[C@@H](O)CC(=C)C[C@H]1OC2[C@H](C)[C@@H](OC(=O)C[C@H]3C[C@H](OC(C)=O)C[C@@]4(C[C@@](C)(O)C[C@H](CC(=C)[C@@H](C)[C@H](OC(C)=O)[C@H](C)C(=O)C[C@@H]5C[C@H](OC)CC6(C[C@@H](O)C[C@H](/C=C\CCC[C@H]7O[C@](O)(C=C[C@H]7C)[C@H]2O)O6)O5)O4)O3)[C@@H]1O | 0.000252 µM and 0.0025 µM | > 25 | 0.00538 µM and 0.0025 µM | 0.000492 µM and < 0.0025 µM | 0.0029 µM and < 0.0025 µM | 0.000359 µM and < 0.0025 µM | < 0.0025 | 0.0025 | 0.0025 | > 25 | 0.000835 µM and 0.0025 µM | > 25 | > 25 | 0.000591 µM and < 0.0025 µM | 0.00272 µM and < 0.0025 µM |  |  |  |  |  |
| COc1ncc(Nc2ncc([C@@H](C)N3CCN(S(C)(=O)=O)CC3)cc2-c2nc(C)nc(N)n2)cc1F | 0.192 µM | 75.1 | 0.194 µM | 0.0287 µM | 1.85 µM | 0.122 µM | 15.3 | 0.199 | 0.0219 | 6.23 | 3.29 µM | > 100 | > 100 | 0.211 µM | > 100 µM | > 100 | 10.5 | 0.32 | 12.5 | 0.385 |
| Nc1nc([Se])c2ncn(C3OC(CO)C(O)C3O)c2n1 (stereo unspecified) | 3.73 µM | > 100 | 22.5 µM | 3.95 µM | > 100 µM | 19.3 µM | 72.5 | > 100 | 30.6 | > 100 | 27.4 µM | > 100 | > 100 | 17.9 µM | > 100 µM | > 100 | > 100 | 2.85 | > 100 | 73.3 |
| NC(=O)c1cc([N+](=O)[O-])c(Cl)c([N+](=O)[O-])c1Cl | 1.75 µM | 3.16 | 1.84 µM | 3.29 µM | 12.1 µM | 0.369 µM | 1.47 | 1.74 | 3.41 | 12.6 | 1.77 µM | 3.19 | 2.49 | 1.82 µM | 3.45 µM | 3.72 | 4.52 | 0.33 | 1.16 | 1.2 |
| C[C@]12CC[C@H]3[C@@H](CC=C4C[C@@H](N5CCCC5)CC[C@@]43C)[C@@H]1C/C(=C\c1cccc(OCCN3CCOCC3)c1)[C@@H]2O | 2.76 µM | 9.83 | 6.91 µM | 2.96 µM | > 100 µM | 3.89 µM | 39.3 | 2.15 | 2.33 | > 100 | 13.3 µM | 55.2 | > 100 |  |  | > 100 | 6.11 | 2.61 | 7.43 | 2.95 |
| COc1cc(Nc2ncc(-c3ccccc3)o2)cc(OC)c1 | > 25 µM | > 25 | > 19.2 µM | > 25 µM | > 25 µM | > 25 µM | > 25 | > 25 | > 25 | > 25 | > 25 µM | > 25 | > 25 | > 25 µM | > 25 µM | > 25 | > 25 | > 25 | > 25 | > 25 |
| Cc1cccc2nc3ccccc3c(Nc3ccc(NS(C)(=O)=O)cc3)c12 | 4.69 µM | 17 | 3.63 µM | 5.2 µM | 47.5 µM | 7.61 µM | 24 | 4.99 | 14.3 | 27.7 | 13 µM | 49.5 | 13.5 | 8.09 µM | 21.4 µM | 19.9 | 19.4 | 3.38 | 15.1 | 3.15 |
| COC12C=C/C(=C(/C(=O)OCc3ccccn3)C(=O)CCCCCCCCC3(OC)C=C/C(=C(/C(=O)OCc4ccccn4)C(=O)CCCCCCCC1)O3)O2 | 0.318 µM | 1.06 | 0.481 µM | 0.397 µM | 2.15 µM |  |  | 0.325 | 0.401 | 2.07 | 0.332 µM | 2.28 | 1.52 | 0.212 µM | 0.518 µM | 3.4 | 1.38 | 0.188 | 0.417 | 0.386 |
| O=C(Nc1ccccc1)Nc1ccc2cc3ccc(NC(=O)Nc4ccccc4)cc3nc2c1 | 1.59 µM | 3.4 | 2.95 µM | 1.82 µM | 3.72 µM | 0.573 µM | 1.88 | 1.54 | 1.88 | 3.69 | 1.12 µM | 2.42 | 2.28 | 0.556 µM | 1.91 µM | 12.3 | 3.06 | 0.467 | 1.67 | 0.978 |
| CC1=C(c2ccccc2)C(O)(c2ccccc2)C(C)C1=O (stereo unspecified) | 11.6 µM | > 100 | 24.6 µM | 12.7 µM | 62.6 µM | 25.1 µM | > 100 | 27.7 | 14.6 | 55.4 | 24.3 µM | > 100 | > 100 |  |  | > 100 | > 100 | 15.3 | > 100 | 22.1 |
| Cc1cc2c(cc1Cl)S/C(=C/C(=O)O)C(Nc1ccc3ncsc3c1)=NS2(=O)=O | 17 µM | > 42.9 | 22.1 µM | > 31.6 µM | > 48.1 µM | > 26.7 µM | > 33.9 | > 35.3 | 7.12 | 29 | > 34.3 µM | > 54.5 | > 63.9 |  |  | > 48.9 | > 55.4 | 22.4 | 62.9 | 28.6 |
| O=C(CCCN1CCC(O)(c2ccc(Cl)cc2)CC1)c1ccc(F)cc1 |  | > 100 |  |  | 31.5 µM |  | 43.2 |  |  | > 100 |  | > 100 | 41.1 |  |  | 23.4 | 36.2 |  | 33.1 |  |
